In patent US10576062B2, “Carbamoyloxymethyl triazole cyclohexyl acids as LPA antagonists” (Bristol-Myers Squibb Company, priority 2016, dated 2020):

Molecular target: T1, human LPA1 (Homo sapiens, UniProt Q92633)
T1 construct: expressed in transfected cells; host or cells: Chinese hamster ovary (CHO) cells
Assay: LPA1 functional antagonist assay (LPA-induced calcium flux)
Type: cell-based
Conditions: human LPA1; read-out: hLPA1 IC50
How it was run: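 CHO cells overexpressing human LPA1, loaded with calcium dye 30 min at 37° C, were preincubated 20 min at room temperature with compound (0.08 nM–5 μM, 0.5% DMSO) in HBSS/20 mM HEPES/0.1% fatty acid-free BSA.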

T1 sequence (Q92633 whole entry): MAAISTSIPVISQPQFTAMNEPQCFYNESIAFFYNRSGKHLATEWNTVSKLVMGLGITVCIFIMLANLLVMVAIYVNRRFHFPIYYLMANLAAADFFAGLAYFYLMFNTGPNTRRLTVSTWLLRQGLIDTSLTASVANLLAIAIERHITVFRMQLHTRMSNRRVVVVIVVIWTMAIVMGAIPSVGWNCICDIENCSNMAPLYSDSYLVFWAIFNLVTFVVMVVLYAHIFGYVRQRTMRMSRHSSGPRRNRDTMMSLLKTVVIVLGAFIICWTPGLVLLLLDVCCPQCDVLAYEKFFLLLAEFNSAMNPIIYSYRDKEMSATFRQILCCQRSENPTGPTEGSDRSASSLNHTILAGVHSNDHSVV

Compound | IC50
CC(C)=CCN(C)C(=O)OCc1c(-c2ccc(O[C@H]3CCC[C@@H](C(=O)O)C3)c(C)n2)nnn1C [Example 172, (1R,3S)-3-((2-methyl-6-(1-methyl-5-(((methyl(3-methylbut-2-en-1-yl)carbamoyl)oxy)methyl)-1H-1,2,3-triazol-4-yl)pyridin-3-yl)oxy)cyclohexane-1-carboxylic acid] | 312 nM
CCCN(C)C(=O)OCc1c(-c2ccc(O[C@H]3CCC[C@H](C(=O)O)C3)cn2)nnn1C [Example 173, (1S,3S)-3-((6-(1-methyl-5-(((methyl(propyl)carbamoyl)oxy)methyl)-1H-1,2,3-triazol-4-yl)pyridin-3-yl)oxy)cyclohexane-1-carboxylic acid] | 131 nM
CN(C(=O)OCc1c(-c2ccc(O[C@H]3CCC[C@H](C(=O)O)C3)cn2)nnn1C)C1CCC1 [Example 174, (1S,3S)-3-((6-(5-(((cyclobutyl(methyl)carbamoyl)oxy)methyl)-1-methyl-1H-1,2,3-triazol-4-yl)pyridin-3-yl)oxy)cyclohexane-1-carboxylic acid] | 58 nM
Cn1nnc(-c2ccc(O[C@H]3CCC[C@H](C(=O)O)C3)cn2)c1COC(=O)N1CCC2(CCC2)C1 [Example 175, (1S,3S)-3-((6-(5-(((6-azaspiro[3.4]octane-6-carbonyl)oxy)methyl)-1-methyl-1H-1,2,3-triazol-4-yl)pyridin-3-yl)oxy)cyclohexane-1-carboxylic acid] | 703 nM
Cn1nnc(-c2ccc(O[C@H]3CCC[C@H](C(=O)O)C3)cn2)c1COC(=O)N1CC2(CCC2)C1 [Example 176, (1S,3S)-3-((6-(5-(((2-azaspiro[3.3]heptane-2-carbonyl)oxy)methyl)-1-methyl-1H-1,2,3-triazol-4-yl)pyridin-3-yl)oxy)cyclohexane-1-carboxylic acid] | 400 nM
CC(C)=CCN(C)C(=O)OCc1c(-c2ccc(O[C@H]3CCC[C@H](C(=O)O)C3)c(C)n2)nnn1C [Example 177, (1S,3S)-3-((2-methyl-6-(1-methyl-5-(((methyl(3-methylbut-2-en-1-yl)carbamoyl)oxy)methyl)-1H-1,2,3-triazol-4-yl)pyridin-3-yl)oxy)cyclohexane-1-carboxylic acid] | 21 nM
Cc1nc(-c2nnn(C)c2COC(=O)N(C)C(C)(C)CF)ccc1O[C@H]1CCC[C@H](C(=O)O)C1 [Example 178, (1S,3S)-3-((6-(5-((((1-fluoro-2-methylpropan-2-yl)(methyl)carbamoyl)oxy)methyl)-1-methyl-1H-1,2,3-triazol-4-yl)-2-methyl-pyridin-3-yl)oxy)cyclohexane-1-carboxylic acid] | 156 nM
CN(C(=O)OCc1c(-c2ccc(O[C@H]3CCC[C@H](C(=O)O)C3)cn2)nnn1C)C1CC2(CCC2)C1 [Example 180, (1S,3S)-3-((6-(1-methyl-5-(((methyl(spiro[3.3]heptan-2-yl)carbamoyl)oxy)methyl)-1H-1,2,3-triazol-4-yl)pyridin-3-yl)oxy)cyclohexane-1-carboxylic acid] | 62 nM
CN(C(=O)OCc1c(-c2ccc(O[C@H]3CCC[C@H](C(=O)O)C3)cn2)nnn1C)C1CC(C)(C)C1 [Example 181, (1S,3S)-3-((6-(5-((((3,3-dimethylcyclobutyl)(methyl)carbamoyl)oxy)methyl)-1-methyl-1H-1,2,3-triazol-4-yl)pyridin-3-yl)oxy)cyclohexane-1-carboxylic acid] | 101 nM
CN(C(=O)OCc1c(-c2ccc(O[C@H]3CCC[C@H](C(=O)O)C3)cn2)nnn1C)C1CC2(CC2)C1 [Example 183, (1S,3S)-3-((6-(1-methyl-5-(((methyl(spiro[2.3]hexan-5-yl)carbamoyl)oxy)methyl)-1H-1,2,3-triazol-4-yl)pyridin-3-yl)oxy)cyclohexane-1-carboxylic acid] | 20 nM
Cc1nc(-c2nnn(C)c2COC(=O)N(C)CCC(C)(C)F)ccc1O[C@H]1CCC[C@H](C(=O)O)C1 [Example 187, (1S,3S)-3-((6-(5-((((3-fluoro-3-methylbutyl)(methyl)carbamoyl)oxy)methyl)-1-methyl-1H-1,2,3-triazol-4-yl)-2-methylpyridin-3-yl)oxy)cyclohexane-1-carboxylic acid] | 50 nM

Other lines, results leading:

IC50 | Compound
162 nM | Cc1nc(-c2nnn(C)c2COC(=O)N2CC3(CCCC3)C2)ccc1O[C@H]1CCC[C@H](C(=O)O)C1 [Example 159, (1S,3S)-3-((6-(5-(((2-azaspiro[3.4]octane-2-carbonyl)oxy)methyl)-1-methyl-1H-1,2,3-triazol-4-yl)-2-methylpyridin-3-yl)oxy)cyclohexane-1-carboxylic acid]
61 nM | Cc1nc(-c2nnn(C)c2COC(=O)N(C)C2CC(C)(C)C2)ccc1O[C@H]1CCC[C@@H](C(=O)O)C1 [Example 160, (1R,3S)-3-((6-(5-((((3,3-dimethylcyclobutyl)(methyl)carbamoyl)oxy)methyl)-1-methyl-1H-1,2,3-triazol-4-yl)-2-methylpyridin-3-yl)oxy)cyclohexane-1-carboxylic acid]
34 nM | Cc1nc(-c2nnn(C)c2COC(=O)N(C)CCC2CC2)ccc1O[C@H]1CCC[C@H](C(=O)O)C1 [Example 162, (1S,3S)-3-((6-(5-((((2-cyclopropylethyl)(methyl)carbamoyl)oxy)methyl)-1-methyl-1H-1,2,3-triazol-4-yl)-2-methylpyridin-3-yl)oxy)cyclohexane-1-carboxylic acid]
317 nM | Cc1nc(-c2nnn(C)c2COC(=O)N2C3CCC2CC3)ccc1O[C@H]1CCC[C@H](C(=O)O)C1 [Example 167, (1S,3S)-3-((6-(5-(((-7-azabicyclo[2.2.1]heptane-7-carbonyl)oxy)methyl)-1-methyl-1H-1,2,3-triazol-4-yl)-2-methylpyridin-3-yl)oxy)cyclohexane-1-carboxylic acid]
29 nM | Cc1nc(-c2nnn(C)c2COC(=O)N(C)C2CC(C)(C)C2)ccc1O[C@H]1CCC[C@H](C(=O)O)C1 [Example 168, (1S,3S)-3-((6-(5-((((3,3-dimethyl-cyclobutyl)(methyl)carbamoyl)oxy)methyl)-1-methyl-1H-1,2,3-triazol-4-yl)-2-methylpyridin-3-yl)oxy)cyclohexane-1-carboxylic acid]
183 nM | Cc1nc(-c2nnn(C)c2COC(=O)N(C)C(C)(C)C)ccc1O[C@H]1CCC[C@H](C(=O)O)C1 [Example 170, (1S,3S)-3-((6-(5-(((tert-butyl(methyl)carbamoyl)oxy)methyl)-1-methyl-1H-1,2,3-triazol-4-yl)-2-methylpyridin-3-yl)oxy)cyclohexane-1-carboxylic acid]
162 nM | Cc1nc(-c2nnn(C)c2COC(=O)N2CCC3(CC2)CC3)ccc1O[C@H]1CCC[C@H](C(=O)O)C1 [Example 171, (1S,3S)-3-((6-(5-(((6-azaspiro[2.5]octane-6-carbonyl)oxy)methyl)-1-methyl-1H-1,2,3-triazol-4-yl)-2-methylpyridin-3-yl)oxy)cyclohexane-1-carboxylic acid]
14 nM | Cc1nc(-c2nnn(C)c2COC(=O)N(C)C2CC3(CC3)C2)ccc1O[C@H]1CCC[C@H](C(=O)O)C1 [Example 179, (1S,3S)-3-((2-methyl-6-(1-methyl-5-(((methyl(spiro[2.3]hexan-5-yl)carbamoyl)oxy)methyl)-1H-1,2,3-triazol-4-yl)pyridin-3-yl)oxy)cyclohexane-1-carboxylic acid]

Same assay, conditions: read-out: hLPA1 IC50

IC50 | Compound
89 nM | Cc1nc(-c2nnn(C)c2COC(=O)N2CCC3(CC3)C2)ccc1O[C@H]1CCC[C@H](C(=O)O)C1 [Example 144, (1S,3S)-3-((6-(5-(((5-azaspiro[2.4]heptane-5-carbonyl)oxy)methyl)-1-methyl-1H-1,2,3-triazol-4-yl)-2-methylpyridin-3-yl)oxy)cyclohexane-1-carboxylic acid]
94 nM | Cc1nc(-c2nnn(C)c2COC(=O)N(C)CC2CC(F)(F)C2)ccc1O[C@H]1CCC[C@H](C(=O)O)C1 [Example 145, (1S,3S)-3-((6-(5-(((((3,3-difluoro-cyclobutyl)methyl)(methyl)carbamoyl)oxy)methyl)-1-methyl-1H-1,2,3-triazol-4-yl)-2-methylpyridin-3-yl)oxy)cyclohexane-1-carboxylic acid]
1820 nM | Cc1nc(-c2nnn(C)c2COC(=O)N(C)C2CC23CCC3)ccc1O[C@H]1CCC[C@@H](C(=O)O)C1 (stereo partly drawn) [Example 146, (1R,3S)-3-((2-methyl-6-(1-methyl-5-(((methyl(spiro[2.3]hexan-1-yl)carbamoyl)oxy)methyl)-1H-1,2,3-triazol-4-yl)pyridin-3-yl)oxy)cyclohexane-1-carboxylic acid]
325 nM | Cc1nc(-c2nnn(C)c2COC(=O)N2CC3CCC2C3)ccc1O[C@H]1CCC[C@H](C(=O)O)C1 (stereo partly drawn) [Example 148, (1S,3S)-3-((6-(5-(((-2-azabicyclo[2.2.1]heptane-2-carbonyl)oxy)methyl)-1-methyl-1H-1,2,3-triazol-4-yl)-2-methylpyridin-3-yl)oxy)cyclohexane-1-carboxylic acid]
180 nM | Cc1nc(-c2nnn(C)c2COC(=O)N2CCC3CCCC32)ccc1O[C@H]1CCC[C@H](C(=O)O)C1 (stereo partly drawn) [Example 149, (1S,3S)-3-((2-methyl-6-(1-methyl-5-(((octahydrocyclopenta[b]pyrrole-1-carbonyl)oxy)methyl)-1H-1,2,3-triazol-4-yl)pyridin-3-yl)oxy)cyclohexane-1-carboxylic acid]
175 nM | Cc1nc(-c2nnn(C)c2COC(=O)N2CC(C)(C)C2)ccc1O[C@H]1CCC[C@H](C(=O)O)C1 [Example 155, (1S,3S)-3-((6-(5-(((3,3-dimethylazetidine-1-carbonyl)oxy)methyl)-1-methyl-1H-1,2,3-triazol-4-yl)-2-methylpyridin-3-yl)oxy)cyclohexane-1-carboxylic acid]
231 nM | Cc1nc(-c2nnn(C)c2COC(=O)N2CC(C)C2)ccc1O[C@H]1CCC[C@H](C(=O)O)C1 [Example 156, (1S,3S)-3-((2-methyl-6-(1-methyl-5-(((3-methylazetidine-1-carbonyl)oxy)methyl)-1H-1,2,3-triazol-4-yl)pyridin-3-yl)oxy)cyclohexane-1-carboxylic acid]
